Results taken from US20230203060A1 (GENFLEET THERAPEUTICS (SHANGHAI) INC., priority 2020, published 2023).

How the values were obtained:
[1] = tested on: KRAS G12C mutant MIA PaCa-2 cells; experiment: Cell proliferation inhibition experiment, 3D spheroid, CellTiter-Glo, MIA PaCa-2; assay type: cell-based, human; conditions: Homo sapiens, MIA PaCa-2, 120 h, 3D cell model in 384-well spheroid plate, 5 days, CellTiter-Glo; read-out: MIA-PaCa2 IC50
Outline: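 200 MIA PaCa-2 cells/well grown overnight as 3D spheroids, then exposed to 3.16-fold compound dilutions (0.1% DMSO final) for 5 days. Viability read by CellTiter-Glo luminescence; inhibition calculated against DMSO and medium-only controls, and IC50 fitted by four-parameter model.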

[2] = tested on: KRAS G12C mutant NCI-H358 cells; experiment: Cell proliferation inhibition experiment, 3D spheroid, CellTiter-Glo, NCI-H358; assay type: cell-based, human; conditions: Homo sapiens, NCI-H358, 120 h, NCI-H358 (KRAS G12C mutant) 3D spheroid, 5 days with compound, CellTiter-Glo; read-out: H358 IC50
Outline: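 Cells seeded in 2% FBS medium in spheroid plates (800 H358 or 400 A549 per well), grown overnight to form 3D spheroids, then exposed to 3.16-fold compound dilutions (0.1% DMSO) for 5 days. CellTiter-Glo luminescence gave inhibition vs DMSO and medium blanks; IC50 by four-parameter fit.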

For C=CC(=O)N1CCN2C(=O)c3c(N4CC(N5CCN(C)CC5)CC4(C)C)nc(-c4c(O)cccc4F)c(Cl)c3OC[C@H]2C1 (stereo partly drawn) [Z467, (6aR)-8-acryloyl-4-chloro-1-(2,2-dimethyl-4-(4-methylpiperazin-1-yl)pyrrolidin-1-yl)-3-(2-fluoro-6-hydroxyphenyl)-6,6a,7,8,9,10-hexahydro-12H-pyrazino[2,1-c]pyrido[3,4-f][1,4]oxazepin-12-one], which IC50 [1] is on record?
The IC50 was 1 nM.

And the IC50 [2]?
Its IC50 is 0.8 nM.

How did the IC50 [1] turn out when C=CC(=O)N1CCN2C(=O)c3c(N4CC[C@H](N(C)C)C4(C)C)nc(-c4ccccc4F)c(Cl)c3OC[C@H]2C1 [Z502-2, (6aR)-8-acryloyl-4-chloro-1-(3-(dimethylamino)-2,2-dimethylpyrrolidin-1-yl)-3-(2-fluorophenyl)-6,6a,7,8,9,10-hexahydro-12H-pyrazino[2,1-c]pyrido[3,4-f][1,4]oxazepin-12(6aH)-one] was run?
The IC50 was 24.1 nM.

And the IC50 [2]?
The IC50 was 11 nM.

How did the IC50 [1] turn out when C=CC(=O)N1CCN2C(=O)c3c(N4CC(N5CCN(C)CC5)CC4(C)C)nc(-c4ccccc4F)c(F)c3OC[C@H]2C1 (stereo partly drawn) [Z474, (6aR)-8-acryloyl-1-(2,2-dimethyl-4-(4-methylpiperazin-1-yl)pyrrolidin-1-yl)-4-fluoro-3-(2-fluorophenyl)-6,6a,7,8,9,10-hexahydro-12H-pyrazino[2,1-c]pyrido[3,4-f][1,4]oxazepin-12-one] was run?
Its IC50 is 17 nM.

What about the IC50 [2] of the same molecule?
The IC50 was 9 nM.

What does the source list for C=CC(=O)N1CCN2C(=O)c3c(N4CC(N(C)C)CC4(C)C)nc(-c4cccc(F)c4F)c(Cl)c3OC[C@H]2C1 (single isomer, unassigned) [Z473-2]?
IC50 [1]: 45 nM; IC50 [2]: 12 nM

C=CC(=O)N1CCN2C(=O)c3c(N4CCN(C)C[C@@H]4C)nc(-c4ccccc4Cl)c(Cl)c3OC[C@H]2C1 [Z461, (R)-8-acryloyl-4-chloro-3-(2-chlorophenyl)-1-((S)-2,4-dimethylpiperazin-1-yl)-6,6a,7,8,9,10-hexahydro-12H-pyrazino[2,1-c]pyrido[3,4-f][1,4]oxazepin-12-one] was tested. Which IC50 [1] did it give?
Its IC50 is 33 nM.

And the IC50 [2]?
The IC50 was 24 nM.

C=CC(=O)N1CCN2C(=O)c3c(N4CC(N5CCC(F)(F)C5)CC4(C)C)nc(-c4ccccc4F)c(Cl)c3OC[C@H]2C1 (stereo partly drawn) [Z532, (6aR)-8-acryloyl-4-chloro-1-(3,3-difluoro-5′,5′-dimethyl-[1,3′-bipyrrolidin]-1′-yl)-3-(2-fluorophenyl)-6,6a,7,8,9,10-hexahydro-12H-pyrazino[2,1-c]pyrido[3,4-f][1,4]oxazepin-12-one] was tested. Which IC50 [1] did it give?
The IC50 was 24.5 nM.

And the IC50 [2]?
The IC50 was 5.8 nM.

For C=CC(=O)N1CCN2C(=O)c3c(N4CC(NC)CC4(C)C)nc(-c4ccccc4F)c(Cl)c3OC[C@H]2C1 (stereo partly drawn) [Z661, (6aR)-8-acryloyl-4-chloro-1-(2,2-dimethyl-4-(methylamino)pyrrolidin-1-yl)-3-(2-fluorophenyl)-6,6a,7,8,9,10-hexahydro-12H-pyrazino[2,1-c]pyrido[3,4-f][1,4]oxazepin-12-one], which IC50 [1] is on record?
The IC50 was 13.1 nM.

What about the IC50 [2] of the same molecule?
The IC50 was 4 nM.

What does the source list for C=CC(=O)N1CCN2C(=O)c3c(N4C[C@@H](N(C)C)CC4(C)C)nc(-c4cccc(C)c4F)c(Cl)c3OC[C@H]2C1 (single isomer, unassigned) [Z472-1]?
IC50 [1]: 74 nM; IC50 [2]: 16 nM

With C=CC(=O)N1CCN2C(=O)c3c(N4C[C@@H](N(C)CCF)CC4(C)C)nc(-c4ccccc4F)c(Cl)c3OC[C@H]2C1 (single isomer, unassigned) [Z660-1] as the molecule, how does the IC50 [1] read?
Its IC50 is 7.7 nM.

And the IC50 [2]?
The IC50 was 1.7 nM.

What does the source list for C=CC(=O)N1CCN2C(=O)c3c(N4C[C@@H](N5CC(F)C5)CC4(C)C)nc(-c4ccccc4F)c(Cl)c3OC[C@H]2C1 [Z480-1, (R)-8-acryloyl-4-chloro-1-((S)-4-(3-fluoroazetidin-1-yl)-2,2-dimethylpyrrolidin-1-yl)-3-(2-fluorophenyl)-6,6a,7,8,9,10-hexahydro-12H-pyrazino[2,1-c]pyrido[3,4-f][1,4]oxazepin-12-one]?
IC50 [1]: 10 nM; IC50 [2]: 3.4 nM

With C=CC(=O)N1CCN2C(=O)c3c(N4C[C@H](N(C)CCOC)CC4(C)C)nc(-c4ccccc4F)c(Cl)c3OC[C@H]2C1 (single isomer, unassigned) [Z406-1] as the molecule, how does the IC50 [1] read?
The IC50 was 10 nM.

What about the IC50 [2] of the same molecule?
Its IC50 is 4 nM.

For C=CC(=O)N1CCN2C(=O)c3c(N4C[C@@H](N(C)CC(F)(F)F)CC4(C)C)nc(-c4ccccc4F)c(Cl)c3OC[C@H]2C1 (single isomer, unassigned) [Z491], which IC50 [1] is on record?
Its IC50 is 7 nM.

And the IC50 [2]?
Its IC50 is 1.4 nM.

Which results are given for C=CC(=O)N1CCN2C(=O)c3c(N4CC(N(C)CC(F)(F)F)CC4(C)C)nc(-c4ccccc4F)c(Cl)c3OC[C@H]2C1 (mixture of isomers) [Z491a, (6aR)-8-acryloyl-4-chloro-1-(2,2-dimethyl-4-(methyl(2,2,2-trifluoroethyl)amino)pyrrolidin-1-yl)-3-(2-fluorophenyl)-6,6a,7,8,9,10-hexahydro-12H-pyrazino[2,1-c]pyrido[3,4-f][1,4]oxazepin-12-one]?
IC50 [1]: 10 nM; IC50 [2]: 2 nM

For C=CC(=O)N1CCN2C(=O)c3c(N4CCC[C@H]4C)nc(-c4c(O)cccc4F)c(Cl)c3OC[C@H]2C1 [Z48, (6aR)-8-acryloyl-1-((R)-2-methylpyrrolidin-1-yl)-4-chloro-3-(2-fluoro-6-hydroxyphenyl)-6,6a,7,8,9,10-hexahydro-12H-pyrazino[2,1-c]pyrido[3,4-f][1,4]oxazepin-12-one], which IC50 [1] is on record?
The IC50 was 28 nM.

And the IC50 [2]?
The IC50 was 15 nM.

What does the source list for C=CC(=O)N1CCN2C(=O)c3c(NC45CC(C4)C5)nc(-c4c(O)cccc4F)c(Cl)c3OC[C@H]2C1 [Z41, (6aR)-8-acryloyl-1-(bicyclo [1.1.1]pentan-1-ylamino)-4-chloro-3-(2-fluoro-6-hydroxyphenyl)-6,6a,7,8,9,10-hexahydro-12H-pyrazino[2,1-c]pyrido[3,4-f][1,4]oxazepin-12-one]?
IC50 [1]: 73 nM; IC50 [2]: 22 nM

With C=CC(=O)N1CCN2C(=O)c3c(N4C[C@@H](N5CC(C#N)C5)CC4(C)C)nc(-c4ccccc4F)c(Cl)c3OC[C@H]2C1 (single isomer, unassigned) [Z637-2] as the molecule, how does the IC50 [1] read?
The IC50 was 10 nM.

What about the IC50 [2] of the same molecule?
Its IC50 is 4.5 nM.

C=CC(=O)N1CCN2C(=O)c3c(N4C[C@H](N5CCN(C)CC5)CC4(C)C)nc(-c4c(O)cccc4F)c(Cl)c3OC[C@H]2C1 (single isomer, unassigned) [Z469-2] was tested. Which IC50 [1] did it give?
Its IC50 is 4 nM.

And the IC50 [2]?
Its IC50 is 2 nM.

Which results are given for C=CC(=O)N1CCN2C(=O)c3c(N4CCN(C)C[C@@H]4C)nc(-c4c(F)cccc4OC)c(F)c3OC[C@H]2C1 [Z451, (6aR)-8-acryloyl-1-((S)-2,4-dimethylpiperazin-1-yl)-4-fluoro-3-(2-fluoro-6-methoxyphenyl)-6,6 a,7,8,9,10-hexahydro-12H-pyrazino[2,1-c]pyrido[3,4-f][1,4]oxazepin-12 (6 aH)-one]?
IC50 [1]: 363 nM; IC50 [2]: 158 nM

How did the IC50 [1] turn out when C=CC(=O)N1CCN2C(=O)c3c(N4C[C@@H](O)CC4(C)C)nc(-c4c(N)cccc4F)c(F)c3OC[C@H]2C1 [Z481, (6aR)-8-acryloyl-3-(2-amino-6-fluorophenyl)-4-fluoro-1-((S)-4-hydroxy-2,2-dimethylpyrrolidin-1-yl)-6,6a,7,8,9,10-hexahydro-12H-pyrazino[2,1-c]pyrido[3,4-f][1,4]oxazepin-12-one] was run?
Its IC50 is 4 nM.

And the IC50 [2]?
The IC50 was 3.2 nM.

Which IC50 [1] does the source give for C=CC(=O)N1CCN2C(=O)c3c(N4CCN(C)C[C@@H]4C)nc(-c4c(O)cccc4F)c(Cl)c3OC[C@H]2C1 [Z51, (6aR)-8-acryloyl-4-chloro-1-((S)-2,4-dimethylpiperazin-1-yl)-3-(2-fluoro-6-hydroxyphenyl)-6,6a,7,8,9,10-hexahydro-12H-pyrazino[2,1-c]pyrido[3,4-f][1,4]oxazepin-12-one] here?
The IC50 was 7 nM.

And the IC50 [2]?
Its IC50 is 4 nM.

Which IC50 [1] does the source give for C=CC(=O)N1CCN2C(=O)c3c(N4CCC(OC)C4(C)C)nc(-c4c(N)cccc4F)c(Cl)c3OC[C@H]2C1 (stereo partly drawn) [Z506, (6aR)-8-acryloyl-3-(2-amino-6-fluorophenyl)-4-chloro-1-(3-methoxy-2,2-dimethylpyrrolidin-1-yl)-6,6a,7,8,9,10-hexahydro-12H-pyrazino[2,1-c]pyrido[3,4-f][1,4]oxazepin-12-one] here?
Its IC50 is 2.2 nM.

What about the IC50 [2] of the same molecule?
The IC50 was 0.8 nM.

For C=CC(=O)N1CCN2C(=O)c3c(N4CCOC(C)(C)C4)nc(-c4c(O)cccc4F)c(Cl)c3OC[C@H]2C1 [Z37, (6aR)-8-acryloyl-4-chloro-1-(2,2-dimethylmorpholino)-3-(2-fluoro-6-hydroxyphenyl)-6,6a,7,8,9,10-hexahydro-12H-pyrazino[2,1-c]pyrido[3,4-f][1,4]oxazepin-12-one], which IC50 [1] is on record?
The IC50 was 12 nM.

And the IC50 [2]?
Its IC50 is 9 nM.

With C=CC(=O)N1CCN2C(=O)c3c(OC4CCCN(C)C4)nc(-c4c(O)cccc4F)c(Cl)c3OC[C@H]2C1 (stereo partly drawn) [Z43, (6aR)-8-acryloyl-4-chloro-3-(2-fluoro-6-hydroxyphenyl)-1-((1-methylpiperidin-3-yl)oxy)-6,6a,7,8,9,10-hexahydro-12H-pyrazino[2,1-c]pyrido[3,4-f][1,4]oxazepin-12-one] as the molecule, how does the IC50 [1] read?
The IC50 was 34 nM.

What about the IC50 [2] of the same molecule?
Its IC50 is 39 nM.

With C=CC(=O)N1CCN2C(=O)c3c(N4C[C@@H](C)N(C)C[C@@H]4C)nc(-c4ccccc4F)c(Cl)c3OC[C@H]2C1 [Z464] as the molecule, how does the IC50 [1] read?
Its IC50 is 179 nM.

What about the IC50 [2] of the same molecule?
Its IC50 is 144 nM.

For C=CC(=O)N1CCN2C(=O)c3c(N4CCN(C)[C@@H](C)[C@@H]4C)nc(-c4ccccc4F)c(Cl)c3OC[C@H]2C1 [Z653, (R)-8-acryloyl-4-chloro-3-(2-fluorophenyl)-1-((2S,3S)-2,3,4-trimethylpiperazin-1-yl)-6,6a,7,8,9,10-hexahydro-12H-pyrazino[2,1-c]pyrido[3,4-f][1,4]oxazepin-12 (6aH)-one], which IC50 [1] is on record?
Its IC50 is 53 nM.

And the IC50 [2]?
Its IC50 is 27.5 nM.
